Key:
[1] = tested on: intracellular L. donovani amastigotes (strain Ld1S); assay: High content assay on intramacrophagic L. donovani amastigotes in primary mouse macrophages; type: cell-based, Leishmania donovani; conditions: for SI (selectivity index): EC50 (BMDM) versus EC50 (L. donovani Am); for EC50: Leishmania donovani, BMDM, 72 h, read-out: EC50 (L. donovani Am)
Description: (§1) Bone marrow derived macrophages (BMDMs) at day 6 of differentiation were resuspended in complete medium supplemented with CSF-1 (25 ng/ml) and deposited in 384 well plates (culture-treated, flat-optically clear bottom, Cellcarrier plate, PerkinElmer). Five hours later purified Am were added.
(§2) One day after macrophage infection, Leish-Box compounds dissolved in DMSO were added for 3 days at 10 or 1 μM final concentration resulting in a 1% DMSO final concentration. Each compound was tested in quadruplicates. Controls included mock (no liquid added), vehicle control (DMSO), positive control (anti-leishmanial amphotericin B, AmB), and cytotoxicity control (cycloheximide, Cyclo).
(§3) The high content assay used to assess the anti-leishmanial activity against intramacrophagic L. donovani amastigotes corresponds to the L. amazonensis HCS protocol up to the drug incubation step. Then, BMDM cultures were fixed with 4% paraformaldehyde solution in PBS for 1 hour at room temperature, washed with PBS, blocked with 50 mM NH4Cl-PBS for 15 min, and saturated for 30 min with saponin-PBS (0.1 mg/ml) containing 5% normal goat serum. All washing steps were performed with saponin-PBS. Cells were incubated for 45 min with saponin-PBS with 0.25% gelatin and an immune serum obtained from a L. donovani infected hamster (dilution 1/1000), washed twice, and further incubated for 45 min with saponin-PBS containing 0.25% gelatin and 2 µg/ml conjugated AlexaFluor 488 goat anti hamster IgG (Jackson ImmunoReasearch). Finally, after additional washing, Hoechst 33342 (5 µg/ml) and HCS CellMask Blue stain (HCS, Invitrogen Molecular Probes, 2 µg/ml) were added for 30 min at room temperature, washed twice with PBS and stored at 4 °C until acquisition. For hit compounds EC50s were calculated using SigmaPlot software (four parameter logistic equation) following application of a range of concentrations (from 10 to 0.16 µM) performed in duplicates.
(§4) Images of macrophage cultures were acquired using the automatic Opera QEHS confocal imaging system (Perkin Elmer Technology). For the L. donovani HCA, a 40x water objective and two lasers (488 nm for immuno-stained parasites; 405 nm for Hoechst-stained parasite and macrophage nuclei, and HCS-stained macrophage cytoplasm) were used for acquiring 285 fields for the entire well or 30 fields per well in routine HCA conditions. For L. amazonensis HCA, a 10x air objective and three lasers (561 nm for mCherry-expressing parasites; 488 nm for LysoTracker-containing PVs; 405 nm for Hoechst-stained macrophage nuclei) were used to acquire images from entire wells (15 fields).
Images were transferred to the Columbus Conductor™ Database (Perkin Elmer Technologies) and analyzed using the integrated Image analysis building blocks. For L. donovani HCA, we developed a new script based on object segmentation subroutines detecting successively the macrophage nucleus, the macrophage cytoplasm, the parasites and their nuclei, with their associated features (number, size and object intensity). All methods used for segmentation are described in the Columbus Manuel. Analysis was simplified by only taking into account the number of macrophages and the number of amastigotes per macrophage, which was the common way to estimate the anti-leishmanial activity in screening campaigns. For the sake of clarity, both toxicity against host cells and activity against the parasites of tested compounds were normalized to DMSO-treated controls and expressed as percent of DMSO controls. The viability index is calculated by establishing a ratio of macrophage numbers between compound- and DMSO-treated cells, while the anti-leishmanial activity is represented by the number of amastigotes per macrophage. Compounds causing a 50% or higher reduction of macrophage density were considered toxic. […] For the L. amazonensis HCA, we applied the method we described previously. […]

[2] = tested on: BMDM (bone marrow derived macrophages); assay: Host cell toxicity (macrophage number) in the L. donovani high content assay; type: cell-based, mouse; conditions: for EC50: Mus musculus, BMDM, 72 h, toxicity against macrophages, 3 days, concentrations from 10 to 0.16 µM
Description: Primary mouse macrophages were prepared as described. Briefly, bone marrow cells were recovered from BALB/c mice and were resuspended in complete DMEM medium (PAN Biotech) supplemented with 75 ng/ml of recombinant mouse CSF-1 (ImmunoTools). Cells were distributed in hydrophobic Petri dishes (Greiner 664161, 1,5 × 10^7 in 11 ml) and incubated at 37 °C in a 7.5% CO2 air atmosphere for 6 days (with mCSF-1 supplemented medium added at day 3).
as §1, §2, §3
Images were transferred to the Columbus Conductor™ Database (Perkin Elmer Technologies) and analyzed using the integrated Image analysis building blocks. For L. donovani HCA, we developed a new script based on object segmentation subroutines detecting successively the macrophage nucleus, the macrophage cytoplasm, the parasites and their nuclei, with their associated features (number, size and object intensity). All methods used for segmentation are described in the Columbus Manuel. Analysis was simplified by only taking into account the number of macrophages and the number of amastigotes per macrophage, which was the common way to estimate the anti-leishmanial activity in screening campaigns. For the sake of clarity, both toxicity against host cells and activity against the parasites of tested compounds were normalized to DMSO-treated controls and expressed as percent of DMSO controls. The viability index is calculated by establishing a ratio of macrophage numbers between compound- and DMSO-treated cells, while the anti-leishmanial activity is represented by the number of amastigotes per macrophage. Compounds causing a 50% or higher reduction of macrophage density were considered toxic. […] For the L. amazonensis HCA, we applied the method we described previously. Quantitative values obtained for host cell and parasite numbers were exported to Excel and SigmaPlot for further analysis and graphical representations.

[3] = tested on: intracellular L. amazonensis amastigotes (strain LV79); assay: High content assay on intramacrophagic L. amazonensis amastigotes in primary mouse macrophages; type: cell-based, Leishmania amazonensis; conditions: hit compounds of Figure 6
Description: as §1, §2
The high content assay used to assess the anti-leishmanial activity against intramacrophagic amastigotes of L. amazonensis has been described elsewhere. Briefly, after 3 days of co-incubation with compounds, BMDM nuclei and parasitophorous vacuoles (PVs) were stained with Hoechst 33342 (Invitrogen Molecular Probes, 12 µM) and LysoTracker Green (Life Technologies, DND-26, 1 µM), respectively. Acquisition of images was performed on live cell cultures.
as §4

[4] = tested on: L. donovani promastigotes (Ld1S); assay: Resazurin reduction viability assay on cultured L. donovani promastigotes; type: cell-based; conditions: Leishmania donovani, read-out: EC50 against L. donovani promastigotes
Description: Figure 4 Leish-Box screening results for cultured L. donovani promastigotes. A resazurin-based viability assay was used to assess anti-leishmanial activity of Leish-Box compounds against Ld1S promastigotes. Two days after compound addition to parasite cultures at logarithmic growth phase, resazurin was added for an additional 24 hours before reading the level of resofurin fluorescence using an Infinite™ M200 plate reader (Tecan™). […] The outer and inner circles represent respectively 80% and 50% threshold activity values.
Anti-leishmanial activity of compounds was evaluated using an adapted resazurin reduction assay[53] with cell-cycling promastigotes from logarithmic growth phase. Compounds were tested in quadruplicates at 20, 4 and 0.8 μM at 26 °C in 384-well plates. DMSO vehicle and AmB (1 μM) were used as controls. Two days later, resazurin was added (10 μL per well at 25 μg/mL) and fluorescence intensity was measured 24 h later using a Tecan Safire 2 reader (excitation 558 ± 4.5 nm; emission 585 ± 10 nm). Following background subtraction (complete parasite culture medium with resazurin in absence of parasites), data were expressed as percentages of growth compared to DMSO-treated controls (POC).

Compound | amastigote survival compared to DMSO control ([1]; positive control, 3 days) [%] | toxicity toward the host cell ([2]; BMDMs recovered after three days of treatment, normalized to mock) | SI (selectivity index) [1] | EC50 [1] [nM] | EC50 [2] [nM] | activity on L. amazonensis intramacrophagic amastigotes [3] | EC50 [4] [nM]
C[C@@H]1[C@H](O)[C@@H](C)/C=C/C=C/C=C/C=C/C=C/C=C/C=C/[C@H](O[C@@H]2O[C@H](C)[C@@H](O)[C@H](N)[C@@H]2O)C[C@@H]2O[C@](O)(C[C@@H](O)C[C@@H](O)[C@H](O)CC[C@@H](O)C[C@@H](O)CC(=O)O[C@H]1C)C[C@H](O)[C@H]2C(=O)O [AmB, amphotericin B, reference compound] | 0.8 | some toxicity |  |  |  |  | 
COc1ccc(NS(=O)(=O)c2cc(NC(=O)c3ccc([N+](=O)[O-])s3)ccc2OC)cc1 [TCMDC-143163] |  |  | > 10 | 790 | > 10000 | active | 
O=C(Nc1ccc(S(=O)(=O)N2CCCC2)cc1)c1ccc([N+](=O)[O-])s1 [TCMDC-143169] |  |  | > 1,5 | 6880 | > 10000 | active | 
COc1ccc(Oc2ccc(C(C)N(C)c3ncc4c(N)nc(N)nc4n3)cc2)cc1 (stereo not shown) [TCMDC-143295] |  |  | > 10 | 480 | > 10000 | active | 80
O=C(Nc1cccc(S(=O)(=O)Nc2ccc(Br)cc2)c1)c1ccc([N+](=O)[O-])s1 [TCMDC-143563] |  |  | > 10 | 590 | 6250 | active | 
Cc1ccc(NC(=O)c2ccc([N+](=O)[O-])s2)cc1S(=O)(=O)N1CCOCC1 [TCMDC-143577] |  |  |  | 1250 | 5090 | active | 
